Test results from US20250041316A1, “METHODS AND COMPOSITIONS FOR TREATING LIVER DISEASE” (Temple University-Of The Commonwealth System of Higher …, priority 2023, published 2025).

Columns and labels:
regucalcin = conditions: WD+DHT vs WD mice
Procedure: (§1) FIG. 1A depicts a representative illustration of the experimental system used to study the effects of DHT on metabolism. Mice were fed with a Western diet (WD). At 45 days of age, one group of mice were administered DHT via pellet at Week 0 and at Week 4-5 (WD+DHT). One group of WD fed mice were not administered with DHT (WD). Mice were euthanized at Week 8. Ex vivo lipolysis, histology and molecular studies were performed.

[1] = tested on: female mice fed with a Western diet
Procedure: as §1

[2] = tested on: prolow-density lipoprotein-related protein 1; conditions: DHT with WD vs WD alone
Procedure: as §1

mice fed with WD = conditions: WD 8 weeks then DHT 3 weeks under WD vs WD alone 11 weeks; FIG. 5

C[C@]12CCC(=O)C[C@@H]1CC[C@@H]1[C@@H]2CC[C@]2(C)[C@@H](O)CC[C@@H]12 [DHT, dihydrotestosterone]
regucalcin in liver (regucalcin): significantly altered | brown adipose cell size (histology) ([1]; DHT with WD mice): enlarged | triglyceride (TG) in circulation ([1]; WD+DHT vs WD mice): Significantly elevated levels | fat in liver (liver images) ([1]; WD+DHT vs WD mice, FIG. 1C): lower levels of fat | liver triglyceride level ([1]; WD+DHT vs WD mice, FIG. 2A): lower levels | liver cholesterol level ([1]; WD+DHT vs WD mice, FIG. 2B): lower levels | liver lipid deposition (oil red and H&E staining, histology) ([1]; WD+DHT vs WD mice, FIG. 4): decreased lipid deposition | glucose tolerance ([1]; at 3 weeks, DHT with WD vs WD alone, adult female mice): more impaired glucose intolerance | pyruvate tolerance ([1]; at 6-7 weeks, DHT with WD vs WD alone, adult female mice): more impaired pyruvate tolerance | prolow-density lipoprotein-related protein 1 in liver [2]: significantly altered | liver triglyceride (mice fed with WD): lower triglyceride
